Assay results from PubChem BioAssay AID256 (DTP/NCI, 2004).
Several values for one entry are separate records, joined by “and”; a condition that tells them apart may be missing. Equal entries are not always repeated. Toxic doses and inconclusive results are not listed. The calls were made as follows: active = survival T/C of 150% or more; inactive = T/C below 125% in these data.

System: CD2F1 mice, L1210 leukemia ip, survival T/C
Experiment: NCI In Vivo Anticancer Drug Screen. Data for tumor model L1210 Leukemia (intraperitoneal) in CD2F1 (CDF1) mice
Details: higher = longer survival
How it was run: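 Ratio T/C, where T is the treated-group value and C the vehicle-dosed control value, from mice implanted with a transplantable tumor.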

[1] = endpoint: mean survival time, dose: 100.0 mg/kg/injection, schedule: Q01DX009 (ip), vehicle: saline with Tween-80
[2] = endpoint: mean survival time, dose: 100.0 mg/kg/injection, schedule: Q04DX003 (ip), vehicle: saline with Tween-80
[3] = endpoint: mean survival time, dose: 200.0 mg/kg/injection, schedule: Q01DX009 (ip), vehicle: saline with Tween-80
[4] = endpoint: mean survival time, dose: 400.0 mg/kg/injection, schedule: Q01DX009 (ip), vehicle: saline with Tween-80
[5] = endpoint: mean survival time, dose: 50.0 mg/kg/injection, schedule: Q01DX009 (ip), vehicle: Klucel (hydroxypropylcellulose) (HPC)
[6] = endpoint: mean survival time, dose: 100.0 mg/kg/injection, schedule: Q01DX001 (ip), vehicle: saline with Tween-80
[7] = endpoint: mean survival time, dose: 200.0 mg/kg/injection, schedule: Q01DX001 (ip), vehicle: saline with Tween-80
[8] = endpoint: mean survival time, dose: 400.0 mg/kg/injection, schedule: Q01DX001 (ip), vehicle: saline with Tween-80
[9] = endpoint: mean survival time, dose: 25.0 mg/kg/injection, schedule: Q01DX009 (ip), vehicle: saline with Tween-80
[10] = endpoint: mean survival time, dose: 50.0 mg/kg/injection, schedule: Q01DX009 (ip), vehicle: saline with Tween-80

Measured: T/C

COC1C=CC=CC=C1
inactive: endpoint: mean survival time, dose: 15.0 mg/kg/injection, schedule: Q04DX003 (ip), vehicle: saline sonified 100 % of control | endpoint: mean survival time, dose: 30.0 mg/kg/injection, schedule: Q04DX003 (ip), vehicle: saline sonified 94 % of control | endpoint: mean survival time, dose: 60.0 mg/kg/injection, schedule: Q04DX003 (ip), vehicle: saline sonified 100 % of control

CCOC1(OCC)C2C=CC1C1C(=O)OC(=O)C12 (centres undefined)
inactive: endpoint: mean survival time, dose: 75.0 mg/kg/injection, schedule: Q01DX001 (ip), vehicle: saline 103 % of control | endpoint: mean survival time, dose: 150.0 mg/kg/injection, schedule: Q01DX001 (ip), vehicle: saline 108 % of control | endpoint: mean survival time, dose: 300.0 mg/kg/injection, schedule: Q01DX001 (ip), vehicle: saline 102 % of control

CC(C)(C)C1CCC(S(=O)c2ccc([N+](=O)[O-])cc2[N+](=O)[O-])CC1 (centres undefined)
inactive: [1] 90 % of control | [2] 94 % of control | [3] 91 % of control | endpoint: mean survival time, dose: 200.0 mg/kg/injection, schedule: Q04DX003 (ip), vehicle: saline with Tween-80 98 % of control | [4] 86 % of control | endpoint: mean survival time, dose: 400.0 mg/kg/injection, schedule: Q04DX003 (ip), vehicle: saline with Tween-80 88 % of control

O=c1ccn(C2OC(CCl)C(O)C2O)c(=O)[nH]1 (centres undefined)
inactive: endpoint: mean survival time, dose: 50.0 mg/kg/injection, schedule: Q01DX001 (ip), vehicle: saline 105 % of control | endpoint: mean survival time, dose: 100.0 mg/kg/injection, schedule: Q01DX001 (ip), vehicle: saline 102 % of control | endpoint: mean survival time, dose: 200.0 mg/kg/injection, schedule: Q01DX001 (ip), vehicle: saline 94 % of control

COC1/C=C\C=C(/C)C(=O)NC2=CC(=O)C=C(C2=O)C(OC)C(C)CC(OC)C(OC)C(C)/C=C(/C)C1OC(N)=O (centres undefined)
inactive: endpoint: mean survival time, dose: 0.18 mg/kg/injection, schedule: Q01DX009 (ip), vehicle: Klucel (hydroxypropylcellulose) (HPC) 108 % of control | endpoint: mean survival time, dose: 0.37 mg/kg/injection, schedule: Q01DX009 (ip), vehicle: Klucel (hydroxypropylcellulose) (HPC) 107 % of control | endpoint: mean survival time, dose: 0.75 mg/kg/injection, schedule: Q01DX009 (ip), vehicle: Klucel (hydroxypropylcellulose) (HPC) 120 % of control and 98 % of control | endpoint: mean survival time, dose: 1.5 mg/kg/injection, schedule: Q01DX009 (ip), vehicle: Klucel (hydroxypropylcellulose) (HPC) 93 % of control and 103 % of control | endpoint: mean survival time, dose: 3.0 mg/kg/injection, schedule: Q01DX009 (ip), vehicle: Klucel (hydroxypropylcellulose) (HPC) 95 % of control and 105 % of control

O=C(Nc1ccc2c(c1)Cc1cccc(NC(=O)C(Cl)Cl)c1-2)C(Cl)Cl
inactive: endpoint: mean survival time, dose: 12.5 mg/kg/injection, schedule: Q01DX009 (ip), vehicle: Klucel (hydroxypropylcellulose) (HPC) 90 % of control | endpoint: mean survival time, dose: 25.0 mg/kg/injection, schedule: Q01DX009 (ip), vehicle: Klucel (hydroxypropylcellulose) (HPC) 93 % of control | [5] 87 % of control

CC(C#N)N(C)C (centres undefined)
inactive: endpoint: mean survival time, dose: 10.0 mg/kg/injection, schedule: Q04DX003 (ip), vehicle: saline 97 % of control | endpoint: mean survival time, dose: 20.0 mg/kg/injection, schedule: Q04DX003 (ip), vehicle: saline 104 % of control | endpoint: mean survival time, dose: 40.0 mg/kg/injection, schedule: Q04DX003 (ip), vehicle: saline 97 % of control

CC(=O)OCc1ncccc1OC(C)=O
inactive: endpoint: mean survival time, dose: 25.0 mg/kg/injection, schedule: Q01DX009 (ip), vehicle: suspension in saline 102 % of control | endpoint: mean survival time, dose: 50.0 mg/kg/injection, schedule: Q01DX009 (ip), vehicle: suspension in saline 98 % of control | endpoint: mean survival time, dose: 100.0 mg/kg/injection, schedule: Q01DX009 (ip), vehicle: suspension in saline 102 % of control | endpoint: mean survival time, dose: 200.0 mg/kg/injection, schedule: Q01DX009 (ip), vehicle: suspension in saline 93 % of control

O=C(NNC(=O)c1ccncc1)NS(=O)(=O)c1ccc(Cl)cc1
inactive: [5] 101 % of control | endpoint: mean survival time, dose: 100.0 mg/kg/injection, schedule: Q01DX009 (ip), vehicle: Klucel (hydroxypropylcellulose) (HPC) 90 % of control | endpoint: mean survival time, dose: 200.0 mg/kg/injection, schedule: Q01DX009 (ip), vehicle: Klucel (hydroxypropylcellulose) (HPC) 97 % of control

COc1ccc(CCF)cc1
inactive: [6] 110 % of control | [7] 100 % of control | [8] 114 % of control

O=C1c2ccccc2C(=O)c2c(Sc3ccccc3)cccc21
inactive: [1] 97 % of control | [3] 93 % of control | [4] 92 % of control

CCC(=O)Nc1nn[nH]n1
inactive: endpoint: mean survival time, dose: 100.0 mg/kg/injection, schedule: Q04DX002 (ip), vehicle: saline with Tween-80 105 % of control | endpoint: mean survival time, dose: 200.0 mg/kg/injection, schedule: Q04DX002 (ip), vehicle: saline with Tween-80 102 % of control | endpoint: mean survival time, dose: 400.0 mg/kg/injection, schedule: Q04DX002 (ip), vehicle: saline with Tween-80 94 % of control

CCCCCn1c(Cl)c(/C=N/NC(N)=S)c2ccccc21
inactive: endpoint: mean survival time, dose: 25.0 mg/kg/injection, schedule: Q04DX003 (ip), vehicle: saline with Tween-80 102 % of control | endpoint: mean survival time, dose: 50.0 mg/kg/injection, schedule: Q04DX003 (ip), vehicle: saline with Tween-80 93 % of control | [2] 96 % of control

C[C@@H]1C[C@@]2(C)[C@@H](CC[C@@H]3[C@@H]2CC[C@@]2(C)[C@H]3CC[C@]2(C)O)CC1=O
inactive: [9] 95 % of control | [10] 95 % of control | [1] 94 % of control | [2] 91 % of control

CC(=O)NC1CC(n2cnc3c(=O)[nH]c(N)nc32)OC1C(C)O (centres undefined)
inactive: endpoint: median survival time, dose: 12.5 mg/kg/injection, schedule: Q01DX005 (ip), vehicle: distilled water + Tween-80 101 % of control | endpoint: median survival time, dose: 25.0 mg/kg/injection, schedule: Q01DX005 (ip), vehicle: distilled water + Tween-80 102 % of control | endpoint: median survival time, dose: 50.0 mg/kg/injection, schedule: Q01DX005 (ip), vehicle: distilled water + Tween-80 100 % of control | endpoint: median survival time, dose: 100.0 mg/kg/injection, schedule: Q01DX005 (ip), vehicle: distilled water + Tween-80 89 % of control

[Cl][Pt][Cl].[NH-]C(CCC(N)=O)C(=O)O (centres undefined)
inactive: endpoint: median survival time, dose: 12.5 mg/kg/injection, schedule: Q04DX003 (ip), vehicle: water 100 % of control | endpoint: median survival time, dose: 25.0 mg/kg/injection, schedule: Q04DX003 (ip), vehicle: water 101 % of control | endpoint: median survival time, dose: 50.0 mg/kg/injection, schedule: Q04DX003 (ip), vehicle: water 108 % of control | endpoint: median survival time, dose: 100.0 mg/kg/injection, schedule: Q04DX003 (ip), vehicle: water 107 % of control | endpoint: median survival time, dose: 200.0 mg/kg/injection, schedule: Q04DX003 (ip), vehicle: water 111 % of control

C[CH2][Pb]([CH2]C)([CH2]C)[O]C(=O)c1cc(-c2ccccc2)nc2ccccc12
inactive: endpoint: mean survival time, dose: 1.56 mg/kg/injection, schedule: Q01DX009 (ip), vehicle: saline with Tween-80 98 % of control | endpoint: mean survival time, dose: 3.13 mg/kg/injection, schedule: Q01DX009 (ip), vehicle: saline with Tween-80 98 % of control | endpoint: mean survival time, dose: 6.25 mg/kg/injection, schedule: Q01DX009 (ip), vehicle: saline with Tween-80 91 % of control and 104 % of control

O=S(=O)(C#Cc1ccccc1)c1ccccc1
inactive: endpoint: mean survival time, dose: 25.0 mg/kg/injection, schedule: Q01DX001 (ip), vehicle: Klucel (hydroxypropylcellulose) (HPC) 95 % of control | endpoint: mean survival time, dose: 50.0 mg/kg/injection, schedule: Q01DX001 (ip), vehicle: Klucel (hydroxypropylcellulose) (HPC) 102 % of control | endpoint: mean survival time, dose: 100.0 mg/kg/injection, schedule: Q01DX001 (ip), vehicle: Klucel (hydroxypropylcellulose) (HPC) 100 % of control

CC(CCc1ccccc1)NC(C)C(O)c1ccc(O)cc1 (centres undefined)
inactive: [9] 102 % of control | [10] 96 % of control | [1] 102 % of control | [2] 102 % of control

N#CC(/C=C/c1ccccc1)NCC(O)c1ccccc1 (centres undefined)
inactive: [6] 97 % of control | [7] 101 % of control | [8] 93 % of control

Cc1csc2ncn(C3OC(CO)C(O)C3O)c(=O)c12 (centres undefined)
inactive: endpoint: mean survival time, dose: 12.5 mg/kg/injection, schedule: Q01DX009 (ip), vehicle: saline with Tween-80 110 % of control | [9] 101 % of control | [10] 94 % of control
